Key:
Type in all cases: in vivo, human
[1] = system: adult subjects with schizophrenia; assay: CGI Severity of Illness score, Clinical Study Two; details: for mean change (SD) from Baseline to Endpoint in CGI severity of illness score: LOCF, ITT
Procedure: (§1) Rating scale assessments were performed weekly, except for week 5, to measure the change from baseline to endpoint of the PANSS total score. Other assessments included: PANSS positive symptom subscale score, PANSS negative symptom subscale score, PANSS general pschopathology subscale score, BPRS total score, BPRS psychosis score, the CGI-S score, the CGI-I score, responder rates based on the PANSS total score, and the Calgary Depression Scale for Schizophrenia (CDSS). […]
(§2) Subjects who completed this study had the option to continue in the long-term. […] Risperidone-treated subjects were titrated from 2 mg to 6 mg daily over a three-day period and were subsequently maintained at 6 mg/day for the remainder of the treatment period. […] Blood samples were also obtained at Screening/Baseline, Week 3, and Week 6 for clinical laboratory assessments.

[2] = system: adult subjects with schizophrenia; assay: PANSS general psychopathology subscale score, Clinical Study Two; details: for Change from Baseline in General Psychopathology Subscale Score, Mean (SD) / Change from Baseline in General Psychopathology Subscale Score, Median / Trt Effect (bifeprunox - placebo), General Psychopathology Subscale Score / mean change (SD) from Baseline to Endpoint in PANSS general psychopathology subscale score: LOCF; for Change from Baseline in General Psychopathology Subscale Score, Mean (SD) / Change from Baseline in General Psychopathology Subscale Score, Median / Trt Effect (bifeprunox - placebo), General Psychopathology Subscale Score: ITT population; for Trt Effect (bifeprunox - placebo), General Psychopathology Subscale Score: ANCOVA; for PANSS general psychopathology subscale score, treatment effect (bifeprunox—placebo): Endpoint LOCF; for mean change (SD) from Baseline to Endpoint in PANSS general psychopathology subscale score: ITT
Procedure: as §1, §2

[3] = system: adult subjects with schizophrenia; assay: CGI responder rate, Clinical Study Three; details: LOCF; for CGI Responder No, % / CGI Responder Yes, %: Week 6/Endpoint
From the text: CLINICAL STUDY THREE: A CGI responder is defined as a subject who is categorized as “very much improved” or “much improved” on the CGI Improvement scale. […] No notable differences were observed between the placebo group and either of the two bifeprunox dose groups.

[4] = system: adult subjects with schizophrenia; assay: PANSS responder rates, Clinical Study One; details: for PANSS responder rate, 20% definition: Endpoint LOCF; for PANSS Responder at Endpoint (LOCF), 20% Definition / PANSS Responder at Endpoint (LOCF), 25% Definition / PANSS Responder at Endpoint (LOCF), 30% Definition / PANSS Responder at Endpoint (LOCF), 35% Definition: ITT
Procedure: There were five treatment groups in this study. […] Study medication was administered once daily. After Baseline measurements were performed, the titration phase was begun. Bifeprunox treated subjects were titrated up to 5 mg, 10 mg or 20 mg according to a standardized titration schedule (Day 1: 0.125 mg, Day 2: 0.25 mg, Day 3: 0.5 mg, Day 4: 1.0 mg, Day 5: 2.0 mg, Day 6: 5.0 mg, Day 7: 10.0 mg, Day 8: 20 mg). When the assigned dose was reached, subjects were maintained at that dose for the remainder of the six-week treatment period.

[5] = Bifeprunox 30 mg, Week 6/Endpoint
[6] = Bifeprunox 40 mg, Week 6/Endpoint

## O=c1[nH]c2cccc(N3CCN(Cc4cccc(-c5ccccc5)c4)CC3)c2o1 [Bifeprunox, 7-[4-([1,1′-biphenyl]-3-ylmethyl)-1-piperazinyl]-2(3H)-benzoxazolone]
[1]; bifeprunox 30 mg
  mean change (SD) from Baseline to Endpoint in CGI severity of illness score: −0.69 (1.19)
[1]; bifeprunox 40 mg, Endpoint LOCF
  CGI severity of illness score, treatment effect (bifeprunox—placebo): −0.18
[1]; bifeprunox 40 mg
  mean change (SD) from Baseline to Endpoint in CGI severity of illness score: −0.54 (1.12)
[2]; Bifeprunox 30 mg, Week 1
  Change from Baseline in General Psychopathology Subscale Score, Mean (SD): −2.7 (6.4)
  Change from Baseline in General Psychopathology Subscale Score, Median: −2
[2]; Bifeprunox 30 mg, Week 2
  Change from Baseline in General Psychopathology Subscale Score, Mean (SD): −4.9 (8.1)
  Change from Baseline in General Psychopathology Subscale Score, Median: −4
[2]; Bifeprunox 30 mg, Week 3
  Change from Baseline in General Psychopathology Subscale Score, Mean (SD): −5.8 (9.2)
  Change from Baseline in General Psychopathology Subscale Score, Median: −5
[2]; Bifeprunox 30 mg, Week 4
  Change from Baseline in General Psychopathology Subscale Score, Mean (SD): −6.1 (9.7)
  Change from Baseline in General Psychopathology Subscale Score, Median: −5
[2]; [5]
  Change from Baseline in General Psychopathology Subscale Score, Mean (SD): −6.0 (10.2)
  Change from Baseline in General Psychopathology Subscale Score, Median: −5
  Trt Effect (bifeprunox - placebo), General Psychopathology Subscale Score: −2.5
[2]; Bifeprunox 40 mg, Week 1
  Change from Baseline in General Psychopathology Subscale Score, Mean (SD): −2.7 (5.9)
  Change from Baseline in General Psychopathology Subscale Score, Median: −2
[2]; Bifeprunox 40 mg, Week 2
  Change from Baseline in General Psychopathology Subscale Score, Mean (SD): −3.4 (7.9)
  Change from Baseline in General Psychopathology Subscale Score, Median: −3
[2]; Bifeprunox 40 mg, Week 3
  Change from Baseline in General Psychopathology Subscale Score, Mean (SD): −3.8 (8.8)
  Change from Baseline in General Psychopathology Subscale Score, Median: −3
[2]; Bifeprunox 40 mg, Week 4
  Change from Baseline in General Psychopathology Subscale Score, Mean (SD): −3.4 (9.3)
  Change from Baseline in General Psychopathology Subscale Score, Median: −2
[2]; [6]
  Change from Baseline in General Psychopathology Subscale Score, Mean (SD): −3.8 (10.1)
  Change from Baseline in General Psychopathology Subscale Score, Median: −3
  Trt Effect (bifeprunox - placebo), General Psychopathology Subscale Score: −0.7
[2]; bifeprunox 30 mg
  PANSS general psychopathology subscale score, treatment effect (bifeprunox—placebo): −2.5
  mean change (SD) from Baseline to Endpoint in PANSS general psychopathology subscale score: −6.0 (10.2)
[2]; bifeprunox 40 mg
  PANSS general psychopathology subscale score, treatment effect (bifeprunox—placebo): −0.7
  mean change (SD) from Baseline to Endpoint in PANSS general psychopathology subscale score: −3.8 (10.1)
[3]; 20 mg
  CGI Responder No, %: 62%
  CGI Responder Yes, %: 38%
[3]; 30 mg
  CGI Responder No, %: 66%
  CGI Responder Yes, %: 34%
[3]; bifeprunox 20 mg
  CGI-I responder rate (subjects much or very much improved) at Endpoint: 38%
[3]; bifeprunox 30 mg
  CGI-I responder rate (subjects much or very much improved) at Endpoint: 34%
[4]; Bifeprunox 5 mg
  PANSS responder rate, 20% definition: 28%
  PANSS Responder at Endpoint (LOCF), 20% Definition: 31 (28) n (%)
  PANSS Responder at Endpoint (LOCF), 25% Definition: 25 (23) n (%)
  PANSS Responder at Endpoint (LOCF), 30% Definition: 16 (15) n (%)
  PANSS Responder at Endpoint (LOCF), 35% Definition: 11 (10) n (%)
[4]; Bifeprunox 10 mg
  PANSS responder rate, 20% definition: 24%
  PANSS Responder at Endpoint (LOCF), 20% Definition: 28 (24) n (%)
  PANSS Responder at Endpoint (LOCF), 25% Definition: 22 (19) n (%)
  PANSS Responder at Endpoint (LOCF), 30% Definition: 12 (10) n (%)
  PANSS Responder at Endpoint (LOCF), 35% Definition: 7 (6) n (%)
[4]; Bifeprunox 20 mg
  PANSS Responder at Endpoint (LOCF), 20% Definition: 38 (34) n (%)
  PANSS Responder at Endpoint (LOCF), 25% Definition: 27 (24) n (%)
  PANSS Responder at Endpoint (LOCF), 30% Definition: 18 (16) n (%)
  PANSS Responder at Endpoint (LOCF), 35% Definition: 14 (13) n (%)
[4]; bifeprunox 20 mg
  PANSS responder rate, 20% definition: 34%

Source: patent US20090068290A1, “BIFEPRUNOX DOSES FOR TREATING SCHIZOPHRENIA” (priority 2006, published 2009)
